Results from patent US8173428B2, “LNA oligonucleotides and the treatment of cancer” (Santaris Pharma A/S, priority 2004, dated 2012).
Oligonucleotides are written 5' to 3', each unit as a sugar letter and its base; * is a phosphorothioate linkage, no mark a phosphodiester; rarer units and linkages stand in square brackets, end groups in braces. Plain capitals give the bases only. l = locked nucleic acid (LNA); [5mC] = 5-methylcytosine; d = 2'-deoxy (DNA)

Columns and labels:
15PC3 cells = assay: Caspase 3/7 assay, oligonucleotide in combination with Taxol; format: cell-based, human; settings: 10 nM oligonucleotide with Taxol (10 nM or 100 nM), 48 hours and 72 hours
Protocol: Cell culturing: Human prostate cancer 15PC3 cells (kindly provided by Dr. F Baas, Neurozintuigen Laboratory, AMC, The Netherlands) were seeded to a density of 8×10E5 cells in T75-flasks and grown for two days at 37° C. and 5% CO2 in DMEM supplemented with 10% FBS, Glutamax and Gentamicin. Two days following seeding cells were transfected with 2-10 nM SEQ ID NO. 2 using Lipofectamine at a final conc. of 7.5 μg/ml. Transfections were carried out as described by Dean et al. (1994, JBC 269 p. 16416 16424). In short cells were incubated with Lipofectamine diluted in OptiMEM for 7-10 min followed by the addition of the oligonucleotide to total volume of 8.7 ml per T75 flask. […] Cells were harvested for either mRNA extraction, Caspase 3/7 assay or fixed, stained with PI and analysed by FACS analysis.
Caspase 3/7 assay: An equal amount of 15PC3 cells ranging from 2500-10000 cells were harvested by centrifugation at the indicated periods and plated in white 96 well plates (Nunc 136101) in DMEM. 100 μl of the highly sensitive Caspase 3/7-Glo™ Reagent (Promega) was added directly to the cells in 96 well and plates were incubated for 1 hour before recording luminescence (luciferase activity) in Luminoskan Ascent instrument from Thermo Labsystems after further 1 min lag period. The luciferase activity is measured as Relative Light Units per seconds (RLU/s). […]

Survivin protein = assay: Western blot analysis of Survivin protein levels in transfected 15PC3 cells; format: cell-based, human; settings: 1, 10 and 25 nM, 12, 24 and 48 hours, compared with mock
Protocol: Cell culturing and transfections: 15PC3 cells were seeded in 12-well plates and grown for two days at 37° C. (5% CO2) in DMEM supplemented with 10% FBS, Glutamax I and Gentamicin. When the cells were 60-70% confluent, they were transfected in duplicates with different concentrations of oligonucleotides (0.2-25 nM) using Lipofectamine 2000 (10 μg/ml). Transfections were carried out essentially as described by Dean et al. (1994, JBC 269:16416-16424). In short, cells were incubated for 10 min. with Lipofectamine in OptiMEM followed by addition of oligonucleotide to a total volume of 0.5 ml transfection mix per well. After 4 hours, the transfection mix was removed, cells were washed and grown at 37° C. for approximately 20 hours (mRNA analysis) or 12-72 hours (protein analysis) in the appropriate growth medium. Cells were then harvested for protein and RNA analysis.
The in vitro effect of Survivin oligoes on Survivin protein levels in transfected cells was determined by Western Blotting.
Cells were harvested and lysed in 50 mM Tris-HCl pH 6.8, 10% glycerol, 2.5% SDS, 5 mM DTT and 6 M urea supplemented with protease inhibitor cocktail (Roche). Total protein concentrations were measured using a BCA protein assay kit (Pierce). 50 μg total protein was run on a 12% Bis-Tris gels in MOPS buffer and blotted onto a PVDF membranes according to manufacture's instructions (Invitrogen). […]

mice = assay: i.v. acute toxicity study in mice; format: in vivo
From the text: (§1) For SEQ ID NO. 2 the following was found among others in preclinical toxicity studies: […]

rats = assay: i.v. acute toxicity study in rats; format: in vivo
From the text: as §1

## 5′-^MeCsTs^MeCsAsastscscsastsgsgs^MeCsAsGsc-3′ (l[5mC]*lT*l[5mC]*lA*dA*dT*dC*dC*dA*dT*dG*dG*l[5mC]*lA*lG*dC) [SEQ ID NO. 2]
15PC3 cells
  Induction of apoptosis (Caspase 3/7 activity) in combination with Taxol: clear additive effect on the induction of apoptosis
Survivin protein
  Survivin protein expression by Western blotting: Survivin protein down-regulation
mice
  maximum non-lethal dose: 1000 mg/kg
rats
  lowest lethal dose: 1000 mg/kg
